Assays:
phospho-Aurora-A/B/C = test: Western blot of Aurora kinase phosphorylation in leukemia cell lines; type: cell-based, human
Protocol: (§1) Following desired experimental conditions, cells were harvested and centrifuged at 1200 rpm at 4°C for 5 minutes. After removal of supernatant, cells were washed in cold PBS. Following an additional centrifugation step, supernatant was removed and the pellet was re-suspended in radioimmunoprecipitation assay (RIPA) buffer (50 mM Tris-HCl (pH 8), 150 mM NaCl, 1% NP-40, 0.5% sodium deoxycholate; 0.1% sodium dodecyl sulphate (SDS)) supplemented with 1% phosphatase inhibitor (Sigma-Aldrich), 1% protease inhibitor (Sigma-Aldrich) and 1% sodium orthovanadate (Alfa Aesar, Ward Hill, Massachusetts). Samples were transferred to Eppendorf tubes, left on ice for 10 minutes, vortexed and then centrifuged at 14 000 rpm for 10 minutes.
To begin, the protein content of the lysates was measured using the Bicinchoninic Acid (BCA) Protein Assay Kit (Pierce, Rockford, Illinois), which included a protein standard curve generated with bovine serum albumin. Appropriate volumes of samples and loading buffer (50 mM Tris-HCl (pH 6.8), 2% SDS, 10% glycerol, 1% β-mercaptoethanol, 12.5 mM EDTA, 0.02% bromophenol blue) were mixed, ensuring that equal amounts of protein were loaded (30 µg of protein per well). Samples were then resolved on SDS-PAGE using various percentages of acrylamide gels (8%–12%), depending on the proteins of interest. SDS-PAGE was run in SDS running buffer (25 mM Tris, 192 mM glycine, 0.1% SDS) and then transferred to nitrocellulose membranes in transfer buffer (48 mM Tris, 39 mM glycine, 20% (v/v) methanol) at 100 volts for 2 hours at 4°C. Immunoblots were then blocked in 5% skim milk in tris-buffered saline with 0.1% Tween-20 (TBS-T; 50 mM Tris-HCl, pH 7.5, 150 mM NaCl, 0.1% (v/v) Tween-20 (Sigma-Aldrich)) for 1 to 2 hours. Immunoblots were then incubated with selected primary antibodies diluted in TBS-T with 0.1% gelatin (Bio-Rad, Mississauga, Ontario) and 0.05% sodium azide (Sigma-Aldrich) overnight. Primary antibodies included: Aurora-A (Cell Signalling, Danvers, Massachusetts; 1∶1000), Aurora-B (Cell Signalling, 1∶1000), phospho-Aurora-A/B/C (Cell Signalling, 1∶1000), caspase 7 (Cell Signalling, 1∶1000), PARP (Cell Signalling, 1∶2000) and β-Actin (Sigma-Aldrich, 1∶10000). Following washes with TBT-T 4 times for 8 to 10 minutes, immunoblots were incubated with appropriate secondary antibodies conjugated to horseradish peroxidise (Sigma-Aldrich) diluted in TBS-T plus 5% skim milk at a ratio of 1∶5000 for 2 hours at room temperature. After an additional round of washes in TBS-T, immunoblots were exposed to combined enhanced chemiluminescence (ECL) reagents (Reagent 1: 100 mM Tris-HCl (pH 8.5), 5.4 mM hydrogen peroxide; Reagent 2: 100 mM Tris-HCl (pH 8.5), 2.5 mM luminol, 0.4 mM p-coumaric acid) for 1 minute and developed by exposure to X-ray film (Christie InnoMed, Montreal, Quebec).
Leukemia cells were plated in a 6 well plate (BD Biosciences) at a concentration of 1×10^6 cells per well in a volume of 500 µl of Opti-MEM supplemented with FBS and antibiotics. Next, Silencer Select Negative Control Number 1 siRNA (Invitrogen), Aurora kinase A siRNA (s196, Invitrogen) and Aurora kinase B siRNA (s17611, Invitrogen) were diluted in individual tubes (BD Biosciences) to a final concentration of 30 nM in 500 µl Opti-MEM without supplements. Following, HiPerfect Transfection Reagent (Qiagen, Toronto, Ontario) was added to the diluted siRNA at a ratio of 3∶100 and the samples were left at room temperature for 10 minutes to allow for the formation of transfection complexes. The transfection complexes were then added to the cells at a volume of 500 µl per well and the plates were placed in the incubator for 6 hours. After incubation, 1.4 ml of Opti-MEM plus supplements were added to each well, for a total volume 2.4 ml per well. The cells were returned to the incubator for an additional 48 or 72 hours and then processed for immunoblotting.

[1] = tested on: cleavage of PARP and caspase 7; test: Western blot of apoptotic markers in leukemia cell lines; type: cell-based, human; conditions: 2, 4, 6, 12 and 24 hours, C1, SEM, KOPN8, TIB-202
Protocol: as §1
To begin, the protein content of the lysates was measured using the Bicinchoninic Acid (BCA) Protein Assay Kit (Pierce, Rockford, Illinois), which included a protein standard curve generated with bovine serum albumin. Appropriate volumes of samples and loading buffer (50 mM Tris-HCl (pH 6.8), 2% SDS, 10% glycerol, 1% β-mercaptoethanol, 12.5 mM EDTA, 0.02% bromophenol blue) were mixed, ensuring that equal amounts of protein were loaded (30 µg of protein per well). Samples were then resolved on SDS-PAGE using various percentages of acrylamide gels (8%–12%), depending on the proteins of interest. SDS-PAGE was run in SDS running buffer (25 mM Tris, 192 mM glycine, 0.1% SDS) and then transferred to nitrocellulose membranes in transfer buffer (48 mM Tris, 39 mM glycine, 20% (v/v) methanol) at 100 volts for 2 hours at 4°C. Immunoblots were then blocked in 5% skim milk in tris-buffered saline with 0.1% Tween-20 (TBS-T; 50 mM Tris-HCl, pH 7.5, 150 mM NaCl, 0.1% (v/v) Tween-20 (Sigma-Aldrich)) for 1 to 2 hours. Immunoblots were then incubated with selected primary antibodies diluted in TBS-T with 0.1% gelatin (Bio-Rad, Mississauga, Ontario) and 0.05% sodium azide (Sigma-Aldrich) overnight. […]

Aurora-A = tested on: Aurora-A; set-up: method as in earlier work; conditions: literature values; ref [10],[22],[27],[40],[44]–[64] as listed per inhibitor in Table 1; read-out: Targets (IC50 Value): Aurora-A; cited from earlier work

SMILES	phosphorylation of Aurora kinases, inhibitor alone, TIB-202 (phospho-Aurora-A/B/C; 1 µM for 12 h, TIB-202, Lanes 3 and 6 of Figure 8)	phosphorylation of Aurora-A, time course, C1 (phospho-Aurora-A/B/C; 1 µM, 2, 4, 6, 12 and 24 hours, C1)	phosphorylation of Aurora-B and Aurora-C, time course (phospho-Aurora-A/B/C; 1 µM, 2, 4, 6, 12 and 24 hours, C1, SEM, KOPN8, TIB-202)	phosphorylation of Aurora-A, time course, SEM, KOPN8, TIB-202 (phospho-Aurora-A/B/C; 1 µM, 2, 4, 6, 12 and 24 hours, SEM, KOPN8, TIB-202)	phosphorylation of Aurora kinases, inhibitor after Aurora-B siRNA (phospho-Aurora-A/B/C; Aurora-B siRNA 60 hours, then 1 µM for 12 h, SEM and TIB-202, Lane 5)	cleavage of caspase 7, time course ([1]; 1 µM)	IC50 (Aurora-A)	phosphorylation of Aurora-B, inhibitor alone (phospho-Aurora-A/B/C; 0.1 µM for 12 hours, SEM and TIB-202, Lanes 3 and 6 of Figure 7)	phosphorylation of Aurora-A, time course (phospho-Aurora-A/B/C; 0.1 µM, 2, 4, 6, 12 and 24 hours, C1, SEM, KOPN8, TIB-202)	phosphorylation of Aurora-B and Aurora-C, time course, C1 and TIB-202 (phospho-Aurora-A/B/C; 0.1 µM, 2, 4, 6, 12 and 24 hours, C1 and TIB-202)	phosphorylation of Aurora-B, time course, SEM and KOPN8 (phospho-Aurora-A/B/C; 0.1 µM, 2, 4, 6, 12 and 24 hours, SEM and KOPN8)	phosphorylation of Aurora-B and Aurora-C, inhibitor after Aurora-A siRNA (phospho-Aurora-A/B/C; Aurora-A siRNA 60 hours, then 0.1 µM for 12 hours, SEM and TIB-202, Lane 5)	cleavage of PARP, time course ([1]; 0.1 µM)	cleavage of caspase 7, time course ([1]; 0.1 µM)
CCN1CCN(C(=O)Cc2ccc(Nc3ncc(F)c(Nc4ccc(C(=O)Nc5ccccc5Cl)cc4)n3)cc2)CC1 [Aurora A Inhibitor I]	promoted dephosphorylation of Aurora-A and increased phosphorylation of Aurora-B and Aurora-C	slight increase in phosphorylation of Aurora-A at 12 and 24 hours	gradual increase in phosphorylation of Aurora-B and Aurora-C compared to vehicle control starting at 2 hours for SEM and KOPN8, 4 hours for TIB-202 and 6 hours for C1	initial decrease, followed by a subsequent increase in phosphorylation of Aurora-A was apparent, starting at 6 hours for SEM and at 4 hours for KOPN8 and TIB-202	decrease in phosphorylation of all three isoforms compared to treatment with Aurora A Inhibitor I alone or Aurora-B siRNA alone	cleavage of caspase 7 beginning at 4 hours for TIB-202 and at 12 hours for the remaining cell lines	3 nM							
CCS(=O)(=O)Nc1ccc2c(c1)/C(=C(/Nc1ccc(CN3CCCCC3)cc1)c1ccccc1)C(=O)N2 [Hesperadin]								promoted dephosphorylation of Aurora-B	remained phosphorylated in all of the cell lines throughout the duration of treatment, with a slight increase in activity at 12 and 24 hours	Dephosphorylation of Aurora-B and Aurora-C was initiated at 2 hours in C1 and TIB-202 and maintained for the duration of the treatment	dephosphorylation of Aurora-B was initiated at 2 hours in SEM and KOPN8 and maintained until 24 hours	decrease in phosphorylation of Aurora-B and Aurora-C compared to silencing of Aurora-A alone	cleavage of PARP in all four cell lines starting at 12 hours	cleavage of caspase 7 beginning at 4 hours for C1 and at 12 hours for the remaining cell lines
